The source of these data is patent US20260345572A1, “PHARMACEUTICAL FORMULATIONS WITH ACTIVITY INHIBITING HISTONE METHYLTRANSFERASES FOR THE TREATMENT OF NEOPLASTIC DISEASES” (Ente Ospedaliero Specializzato in Gastroenterologia …, priority 2022, published 2026).

The subject of experiment [1] is HCT116 cells. Nature of the experiment: Cell viability (WST-1). The settings on record: FIG. 5. It counts as cell-based, human. Here is the method:
(§1) The human cell lines HT29, HCT116, SW480, MDA-MB-231, MDA-MB-468, HGC-27, and PANC1 were cultured in DMEM culture medium, supplemented with 10% fetal bovine serum (FBS); N87, AGS and KATO III were cultured in RPMI culture medium supplemented with 10% FBS; CACO2 were cultured in DMEM culture medium, supplemented with 20% FBS and nonessential amino acids. All cell lines were cultured in the presence of 1% antibiotics (Penicillin and Streptomycin), at 37 °C in an atmosphere of 5% CO2 and always maintained in a subconfluence state.
(§2) Cell viability analysis was performed by using WST-1 kit (Roche), allowing to measure viable cell metabolic activity. In short, the quantitation of mitochondrial dehydrogenase activity is assessed by soluble tetrazolium salt ([…], colorless) conversion into its corresponding product, formazane (colored). The quantitative assessment of salt conversion into its colored form is then performed by spectrophotometrically calculating absorption at 450 nm. Substrate conversion levels are therefore proportional to enzymatic activity which, in turn, represents a marker of cell viability and proliferation.
(In general: Formazan colour is commonly taken as a measure of viable cells.)

The subject of experiment [2] is HT29 cells. As to the kind of experiment: Cell viability (WST-1). Type of experiment: cell-based, human. Particulars: FIG. 5. As for the experimental part:
as §1, §2

The subject of experiment [3] is HCT116 cells. As to the kind of experiment: Apoptotic cell percentage (Annexin V). Type of experiment: cell-based, human. The settings on record: FIG. 1B; EM127 + chemotherapeutic compound (Oxaliplatin, 5-Fluorouracil or Irinotecan, 10 μM). As for the experimental part: as §1
(§3) Analysis of the percentage of cells undergoing programmed death, referred to as apoptosis, was performed by Annexin V assay. The concentrations of live cells, cells in early apoptosis, in total apoptosis and dead cells were measured with Muse Annexin V and Dead Cell Reagent kit (Luminex). 5×10^4 cells/mL were stained with the reagent provided by the kit. After 20 min incubation, fluorescence is read with Guava® Muse® Cell Analyzer. The test was performed on the following cell lines: HCT116, PANC1, SW480, MDA-MB-231, MCF7, AGS.

Experiment [4] concerns HCT116-derived tumor spheroids. Nature of the experiment: LIVE/DEAD viability of tumorspheres. The settings on record: FIG. 2; EM127 + Oxaliplatin or Irinotecan 10 μM. It counts as cell-based, human. As for the experimental part:
The tumorspheres deriving from the continuous cell line HCT116 “HCT116-derived tumor spheroids” were obtained by using a suitable DMEM/F12 Advanced culture medium supplemented with 1× Glutamine, 1× Penicillin/streptomycin, 0.6% glucose, 1×B27, 1×N2, 20 ng/ml EGF, 10 ng/ml bFGF, and cultured in media surface-treated to ensure a very low cell adhesion.
To assess cell viability on HCT116-derived tumorspheres, LIVE/DEAD® Viability/Cytotoxicity Assay kit (Thermo Fisher) was used, allowing to discriminate live cells from dead ones with two probes measuring intracellular enzymatic activity and plasma membrane integrity. Tumorspheres were incubated with the reagent provided by the kit and then visualized with a fluorescence microscope. Live cells are stained with reagent calcein and generate a green fluorescence signal; dead cells are stained with ethidium homodimer, generating a red signal.

Experiment [5] concerns MCF7 breast cancer cells. Nature of the experiment: Synergistic effect, nonviable/apoptotic cell population. It counts as cell-based, human. Particulars: FIG. 9, >1 = synergistic. As for the experimental part: (§4) Analysis of non-viable cell percentage was carried out by counting live cells and dead cells after staining with 0.01% Trypan Blue, a dye permeating cells only in the condition in which plasma membrane integrity is compromised. In short, after collecting the culture medium and the plate-adhering cells, detached by enzymatic treatment with 1% trypsin/EDTA, the pellet obtained by centrifuging was resuspended in an adequate volume of DPBS and 10 μl of cell suspension were diluted in an equal volume of Trypan blue. The counting was performed with a phase-contrast optical microscope, using a Burker chamber.
as §3

For experiment [6], the system named is AGS gastric cancer cells. The experiment is described as above. Type of experiment: cell-based, human. The settings on record: FIG. 9, >1 = synergistic. Here is the method:
as §4, §3

The subject of experiment [7] is MDA-MB-231 breast cancer cells. Described as above. Type of experiment: cell-based, human. Particulars: FIG. 9, >1 = synergistic. As for the experimental part:
as §4, §3

In experiment [8] the test system is PANC1, SW80, AGS, N87, HGC-27 cells. Nature of the experiment: Cell death and viability, FIG. 6 panel of cell lines. Type of experiment: cell-based, human. The settings on record: 72 h. As for the experimental part: as §1
Cell viability analysis was performed by using WST-1 kit (Roche), allowing to measure viable cell metabolic activity. In short, the quantitation of mitochondrial dehydrogenase activity is assessed by soluble tetrazolium salt ([…], colorless) conversion into its corresponding product, formazane (colored). The quantitative assessment of salt conversion into its colored form is then performed by spectrophotometrically calculating absorption at 450 nm. […]
Analysis of the percentage of cells undergoing programmed death, referred to as apoptosis, was performed by Annexin V assay. The concentrations of live cells, cells in early apoptosis, in total apoptosis and dead cells were measured with Muse Annexin V and Dead Cell Reagent kit (Luminex). […] After 20 min incubation, fluorescence is read with Guava® Muse® Cell Analyzer. […]

The subject of experiment [9] is colorectal cancer stem cells. Nature of the experiment: Clonogenic assay. Type of experiment: cell-based, human. Particulars: FIG. 3C; EM127 + Oxaliplatin, 5-Fluorouracil or Irinotecan 10 μM. The source says: (§5) In compliance with Art 170bis, Paragraph 3 C.P.I., it is hereby certified that: • The colorectal cancer stem cells used at the base of the invention object of the present application have been isolated from patients, and the aforementioned cells were obtained following the free and informed consent to their collection and use expressed by the person from whom said material has been collected, under the regulations in force; and • C57BL/6 mice for the AOM/DSS murine model of colorectal cancer were not genetically modified.
For the clonogenic assay, previously dissociated colorectal cancer tumorspheres were plated in triplicate using 500 cells per experimental point and resuspended in 0.3% agarose on a 0.5% agarose layer. Subsequently, they were treated with EM127 and chemotherapeutic compounds.

Experiment [10] relates to colorectal cancer stem cells. Nature of the experiment: Migration assay (Boyden chamber). It counts as cell-based, human. Particulars: FIG. 3B; EM127 + Oxaliplatin, 5-Fluorouracil or Irinotecan 10 μM.
Source text: as §5
To assess cell motility, colorectal cancer tumorspheres were suspended in 200 μl non-supplemented stem cell culture medium and plated in the top section of a Boyden culture chamber, which is separated from the bottom part by a polycarbonate membrane allowing cells to migrate. The underlying section contains 600 μl of stem cell medium supplemented with 20 ng/ml EGF and 10 ng/ml basic FGF and chemotherapeutic compounds.

The test system of experiment [11] is AOM/DSS murine model of colorectal cancer. Nature of the experiment: AOM/DSS murine model of colorectal cancer. It counts as in vivo, C57BL/6 mice. Particulars: FIG. 8; EM127 20 mg/kg + Irinotecan 20 mg/kg, intraperitoneally, 14 days; vs Irinotecan alone. Here is the method: C57BL/6 mice were treated intraperitoneally with 12 mg/kg azoxymethane (AOM). Dextran sulfate sodium (DSS) was then administered, at 2% in water for five days, followed by two weeks with water only. This cycle was repeated thrice. At +10 days from the last DSS administration, the Inventors proceeded with the treatment with 20 mg/kg EM127 and/or 20 mg/kg Irinotecan, or with the carrier alone, intraperitoneally, for a total of 14 days.

Experiment [12] concerns Caco2 colorectal cancer cells. As to the kind of experiment: Cell viability (WST-1). It counts as cell-based, human. The settings on record: FIG. 1A; EM127 72 h + Oxaliplatin, 5-Fluorouracil or Irinotecan 10 μM for the last 24 h; vs chemotherapeutic compound alone. As for the experimental part:
as §1, §2

The subject of experiment [13] is KATO III cells. Nature of the experiment: Cell viability (WST-1). Type of experiment: cell-based, human. The settings on record: FIG. 7; EM127 alone; low SMYD3 protein levels. As for the experimental part: as §1, §2
Experiment [14] has as its system PANC1 pancreatic cancer cells. As to the kind of experiment: Cell viability (WST-1). It counts as cell-based, human. Here is the method: as §1, §2
The subject of experiment [15] is AGS gastric cancer cells. As to the kind of experiment: Cell viability (WST-1). It counts as cell-based, human. As for the experimental part:
as §1, §2

The test system of experiment [16] is MDA-MB-231 breast cancer cells. As to the kind of experiment: Cell viability (WST-1). Type of experiment: cell-based, human. The settings on record: FIG. 4; EM127 + chemotherapeutic compounds (Paclitaxel 10 μM, Oxaliplatin 10 μM, Doxorubicin 1 μM). As for the experimental part: as §1, §2
For experiment [17], the system named is SW480 colorectal cancer cells. As to the kind of experiment: Cell viability (WST-1). It counts as cell-based, human. As for the experimental part:
as §1, §2

Experiment [18] relates to N87 gastric cancer cells. Nature of the experiment: Cell viability (WST-1). Type of experiment: cell-based, human. Here is the method:
as §1, §2

Experiment [19] concerns HGC-27 gastric cancer cells. Nature of the experiment: Cell viability (WST-1). Type of experiment: cell-based, human. Here is the method: as §1, §2
The test system of experiment [20] is MDA-MB-468 cells. Nature of the experiment: Cell viability (WST-1). Particulars: FIG. 7; EM127 alone; low SMYD3 protein levels. It counts as cell-based, human. Here is the method: as §1, §2
Experiment [21] has as its system colorectal cancer stem cells. As to the kind of experiment: Cancer stem cell viability. Particulars: FIG. 3A; EM127 + Oxaliplatin, 5-Fluorouracil or Irinotecan 10 μM. Type of experiment: cell-based, human.
Source text: as §5, §2

Experiment [22] concerns HR-deficient cell lines. Particulars: previously described; cited from earlier work.
Setting [23] is: single-compound treatment, 72 h, increasing concentrations.
Where [24] appears, read: FIG. 6C, EM127 + Olaparib 10 μM, 72 h, vs single compound.
[25] abbreviates: FIG. 4, EM127 + chemotherapeutic compounds (Paclitaxel 10 μM, Oxaliplatin 10 μM, Doxorubicin 1 μM).
Where [26] appears, read: EM127 72 h + 5-Fluorouracil 10 μM last 24 h.
[27] abbreviates: EM127 72 h + Irinotecan 10 μM last 24 h.
Where [28] appears, read: EM127 72 h + Oxaliplatin 10 μM last 24 h.

Take `O=c1[nH]cc(F)c(=O)[nH]1` [5-Fluorouracil, reference compound]: the “reduction of cell viability” value in experiment [1] (setting [23]) and in experiment [2] (setting [23]) was “about 50%” throughout.
Take `O=C(NC1CCN(C(=O)CCl)CC1)c1cc(C2CC2)on1` [EM127]: in experiment [3], the “dead (apoptotic) cell percentage” value is “increased”. In [4], the “live and dead cells by immunofluorescence” value is recorded as “synergy”. Further, the synergistic effect result in experiment [5] (EM127 + Doxorubicin), in experiment [5] (EM127 + Paclitaxel), in experiment [6] (EM127 + Doxorubicin), in [6] (EM127 + Paclitaxel), in [7] (EM127 + Doxorubicin) and in [7] (EM127 + Paclitaxel) was “higher than 1” in each case. Moreover, the cell death entry in experiment [8] (FIG. 6A, B, EM127 + Olaparib 10 μM, vs single compound) is recorded as “increase of cell death”. In addition, the “cell viability by HR status” value in experiment [8] (FIG. 6C, combined treatment EM127 + Olaparib 10 μM) is recorded as “reduction of cell viability only for HR-proficient cell lines”. In addition, the “ability to form colonies” value in experiment [9] is on record as “synergistic effect”. For the same molecule, the ability to migrate entry in experiment [10] was “synergistic effect”. Moreover, the “number of tumors at the level of the colon” value in experiment [11] is “reduces the number of tumors”. For the same molecule, the cell viability entry is reported as “reduces cell viability with a greater effect” in experiment [12]; “absence of effect” in experiment [13]; “reduction of cell viability” in experiment [14] (setting [24]); “synergistic effect” in [14] (FIG. 10, EM127 + Rucaparib); “reduction of cell viability” in experiment [15] (setting [24]); “synergistic effect” in [15] (FIG. 10, EM127 + Rucaparib). The cell viability entry in experiment [16] is “synergistic effect”; in [17] (FIG. 1A, EM127 72 h + Oxaliplatin, 5-Fluorouracil or Irinotecan 10 μM for the last 24 h, vs chemotherapeutic compound alone) it was “reduces cell viability with a greater effect”; in experiment [17] (FIG. 6C, EM127 + Olaparib 10 μM, 72 h, vs single compound, cell line printed SW80), “reduction of cell viability”; in experiment [17] (FIG. 10, EM127 + Rucaparib), “synergistic effect”; in [18] (setting [25]), “synergistic effect”; in [18] (setting [24]) it was “reduction of cell viability”. Also, the cell viability entry in experiment [18] (FIG. 10, EM127 + Rucaparib) was “synergistic effect”; in experiment [19] (setting [25]) it was “synergistic effect”; in experiment [19] (setting [24]) it was “reduction of cell viability”; in [19] (FIG. 10, EM127 + Rucaparib) it was “synergistic effect”; in experiment [20], “absence of effect”; in experiment [21], “synergistic effect”. Moreover, the “reduction of cell viability” value in [1] (setting [26]), in experiment [1] (setting [27]), in [1] (setting [28]), in [2] (setting [26]), in experiment [2] (setting [27]) and in [2] (setting [28]) was “about 50%” throughout.
Regarding `CCc1c2c(nc3ccc(OC(=O)N4CCC(N5CCCCC5)CC4)cc13)-c1cc3c(c(=O)n1C2)COC(=O)[C@]3(O)CC` [Irinotecan, reference compound], the “reduction of cell viability” value in experiment [1] (setting [23]) and in [2] (setting [23]) was “about 50%” in each case.
In the case of `O=C(c1cc(Cc2n[nH]c(=O)c3ccccc23)ccc1F)N1CCN(C(=O)C2CC2)CC1` [Olaparib], the “sensitivity to treatment with Olaparib alone” value in experiment [22] is “sensitive”.
With `N[C@@H]1CCCC[C@H]1N.[Pt+2]` [Oxaliplatin, reference compound], the “reduction of cell viability” value in [1] (setting [23]) and in experiment [2] (setting [23]) was “about 50%” each time.
